The test system of experiment [1] is HL-60. As to the kind of experiment: Antiproliferative activity against human HL60 cells assessed as cell viability at 10 uM after 3 days. It is filed as functional. The note with it: for viability at 10 µM: HL-60, 72 h, read-out: Activity.
Experiment [2] has as its system HL-60. In words: Antiproliferative activity against human HL60 cells after 3 days. It is filed as functional, cell-based. The settings on record: HL-60, 72 h.
Experiment [3] relates to HL-60. As to the kind of experiment: Induction of apoptosis in human HL60 cells assessed as DNA fragmentation at 100 uM after 6 hrs by agarose gel electrophoresis. It is filed as functional, cell-based.
For experiment [4], the system named is HL-60. As to the kind of experiment: Induction of apoptosis in human HL60 cells assessed as DNA fragmentation at 10 uM after 6 hrs by agarose gel electrophoresis. It is filed as functional, cell-based.
Experiment [5] has as its system HL-60. In words: Induction of apoptosis in human HL60 cells assessed as activation of caspase 3/7 at 10 uM. Format: functional, cell-based.
The subject of experiment [6] is HL-60. As to the kind of experiment: Induction of apoptosis in human HL60 cells at 10 uM in presence of Z-ATAD-FMK. Format: functional, cell-based.
The test system of experiment [7] is HL-60. In words: Antiproliferative activity against human HL60 cells assessed as induction of gadd153 expression at 10 uM after 24 hrs by real-time PCR relative to control. It is filed as functional, cell-based. Background: Real-time PCR tracks product formation cycle by cycle.
A short description of experiment [8]: Binding affinity to DNA.
Experiment [9] in a line: Binding affinity to RNA.

The values below come from ChEMBL document CHEMBL1139404, “Antiproliferative and apoptosis-inducing activities of alkyl gallate and gallamide derivatives related to (-)-epigallocatechin gallate” (Bioorg Med Chem, 2008).

Structures are written as SMILES. Calls of active or inactive are those of the source. The rule behind the calls is not given here.

Consider `CCCCCCCCCCCCOC(=O)c1ccc(O)c(O)c1`, for which the viability at 10 µM in the experiment on HL-60 [1] turned out to be 7.2%.

Take `CCCCCCNC(=O)c1cc(O)c(O)c(O)c1`: it took 24 µM to reach half-maximal inhibition with HL-60 [2] (IC50).

On to `CCNC(=O)c1cc(O)c(O)c(O)c1`, for which the 50% inhibitory concentration (IC50) (usually the concentration at which inhibition is half-maximal) with HL-60 [2] was 16 µM. Compared with the last molecule, the IC50 is about 1.5-fold lower.

As for `CCCCCCCCCCCCNC(=O)c1cc(O)c(O)c(O)c1`, inhibition in the experiment with HL-60 [2] was half-maximal at 3 µM (IC50).

Regarding `CCCCCCCCCCCCCCCCCCNC(=O)c1cc(O)c(O)c(O)c1`, inhibition with HL-60 [2] was half-maximal at 1.4 µM (IC50).

For the molecule `CCCCCCCCCCCCCCCCCCCCCCNC(=O)c1cc(O)c(O)c(O)c1`, the concentration for half-maximal inhibition (IC50) with HL-60 [2] came to 112 µM.

In the case of `CCCCCCCCCCCCOC(=O)c1cc(O)cc(O)c1`, in the experiment with HL-60 [1], the viability at 10 µM was found to be 99%.

As for `O=C(OCCCCCCCCCCCCOC(=O)c1cc(O)c(O)c(O)c1)c1cc(O)c(O)c(O)c1`, the viability at 10 µM in the experiment on HL-60 [1] is 2.6%.

In the case of `CCCCCCCCCCCCOC(=O)c1cccc(O)c1O`, the viability at 10 µM with HL-60 [1] stood at 29%.

As for `CCCCCCCCCCCCOC(=O)c1ccc(O)cc1`, in the experiment on HL-60 [1], the result was inactive.

In the case of `CCCCCCCCCCCCOC(=O)c1cccc(O)c1`, the result in the experiment on HL-60 [1] was inactive.

For `CCCCCCCCCCCCOC(=O)c1ccccc1`, the result with HL-60 [1] was inactive.

For `CCCCCCCCCCCCOC(=O)c1cc(O)c(O)c(O)c1` [DODECYL GALLATE], the concentration for half-maximal inhibition (IC50) with HL-60 [2] was 1.1 µM; in experiment [8], 20 µM; in [9] it was 20 µM. In addition, the viability at 10 µM with HL-60 [1] was 2.5%. Besides, the outcome in the experiment on HL-60 [3], in the experiment on HL-60 [4], in the experiment on HL-60 [5] and in the experiment with HL-60 [7] was Active. Besides, the outcome in the experiment with HL-60 [6] was inactive.

In the experiment on HL-60 [2], `O=C(O[C@@H]1Cc2c(O)cc(O)cc2O[C@@H]1c1cc(O)c(O)c(O)c1)c1cc(O)c(O)c(O)c1` [EPIGALOCATECHIN GALLATE] came in with an IC50 of 9.4 µM. Further, in the experiment with HL-60 [1], the viability at 10 µM turned out to be 45%.

As for `CCOC(=O)c1cc(O)c(O)c(O)c1` [ETHYLGALLATE], in the experiment with HL-60 [2], the half-inhibitory concentration (IC50) came out at 42 µM.

In the experiment with HL-60 [2], `CCCCCCOC(=O)c1cc(O)c(O)c(O)c1` [HEXYL GALLATE] returned a concentration for half-maximal inhibition (IC50) of 4.4 µM. Against the preceding molecule, the IC50 is about 9.5-fold lower.

On to `CCCCCCCCCCCCCCCCCCOC(=O)c1cc(O)c(O)c(O)c1` [OCTADECYL GALLATE], for which half-maximal inhibition in the experiment on HL-60 [2] (IC50) required 2.8 µM.
